Test results published in US20240165112A1, “THERAPY FOR THE TREATMENT OF CANCER” (Bristol-Myers Squibb Company, priority 2022, published 2024).

Experiments:
[1] = tested on: LXFE690 organoid, NSCLC (squamous subtype); test: 3D clonogenic assay in patient derived organoids; assay type: cell-based, human; settings: 8 to 13 days
Description: (§1) Five tumor cell lines (4T1.2, A549, EMT6, NCI-H460, and HT29) were treated with a range of paclitaxel or 5-FU concentrations in the presence of dimethlylsulfoxide (DMSO), 5 μM Compound 1, or 20 μM Compound 1. Cells were imaged 4 days after treatment and percent confluence was assessed by image quantification. EC50 values for cell confluence were used to assess chemotherapy potency. Eleven patient-derived tumor organoids (MAXFTN449, MAXFTN2990, PAXF1657, PAXF2131, CXF1256, CXF2129, CXF2061, LXFE2478, LXFE690, LXFA677, LXFA644) were seeded in a 3D matrix and treated with a range of paclitaxel, 5-FU, SN38, Gemcitabine, oxaliplatin, and carboplatin concentrations in the presence of DMSO, 5 μM Compound 1, or 20 μM Compound 1. After 8 to 13 days in culture, colonies were stained, imaged, and counted. A dose response curve was generated for chemotherapy alone or chemotherapy in combination with 5 or 20 μM Compound 1. Combination activity was defined as a percentage of the area under the chemotherapy dose response curve (cAUC) for Compound 1 combination groups compared to the cAUC of chemotherapy alone.
(§2) For combination experiments, working stock solutions of all compounds were prepared in DMSO at concentrations of 660-fold the highest test concentration used and stored at −20° C. Platin compounds were prepared freshly on each treatment day. On each day of an experiment, an aliquot of the working stock solutions was used and stored at room temperature prior to and during treatment. First, 1:2 dilutions of 660-fold concentrated working stocks were prepared in DMSO (in case of monotherapy controls), or equal amounts of the compound working stocks were mixed (in case of drug combinations). Then, different dilutions of these 330-fold concentrated solutions were prepared in DMSO to give an 8×2 matrix combination layout with conditions. The DMSO dilutions were further diluted […] into cell culture medium (IMDM, supplemented with 20% (v/v) fetal bovine serum, and 50 μg/mL gentamicin) in an intermediate dilution plate. Finally, 10 μL taken from the intermediate dilution plate were transferred to 140 μL of cells and medium per well of the final assay plate. Thus, the DMSO dilutions used for the mono- and the combination-treatment were diluted 1:660, and the DMSO concentration in the assay was […].
(§3) Tumors were passaged as subcutaneous xenografts in NMRI nu/nu mice. At a tumor volume of 400 to 1000 mm^3, tumor-bearing mice were euthanized, and tumors were collected under sterile conditions without delay. Tumors were mechanically disaggregated and subsequently incubated with an enzyme cocktail consisting of collagenase type IV (41 U/mL), DNase I (125 U/mL), hyaluronidase type III (100 U/mL), and dispase II (1 U/mL) in RPMI 1640 medium at 37° C. for 60 to 120 minutes. Cells were passed through sieves of 100 μm and 40 μm mesh size, and washed with RPMI 1640 medium. The percentage of viable cells was determined in a Neubauer-hemocytometer using trypan blue exclusion. Aliquots of the cells were frozen down and stored in liquid nitrogen vapor phase. On each day of an experiment, a frozen aliquot of tumor cells was thawed and used for preparation of assay plates.
(§4) The clonogenic assay was carried out in a 96 well plate format using ultra low attachment plates. For each test, plates were prepared as follows: each test well contained a layer of semi-solid medium with tumor cells (50 μL), and a second layer of medium supernatant with or without test compound (100 μL). The cell layer consisted of […] to 12.5×10^3 tumor cells per well, which were seeded in 50 μL/well cell culture medium (IMDM, supplemented with 20% (v/v) fetal bovine serum, 50 μg/mL gentamicin, and 0.4% (w/v) agar). After 24 hours, the soft-agar layer was covered with 90 μL of the same culture medium without agar, and 10 μL of control medium or test compound after serial dilution in DMSO for the duration of the experiment (continuous exposure, 100 μL drug overlay).

[2] = tested on: CXF2129 organoid, colon cancer; test: 3D clonogenic assay in patient derived organoids; assay type: cell-based, human; settings: 8 to 13 days
Description: as §1, §2, §3, §4

[3] = tested on: LXFA677 organoid, NSCLC (adenocarcinoma subtype); test: 3D clonogenic assay in patient derived organoids; assay type: cell-based, human; settings: 8 to 13 days
Description: as §1, §2, §3, §4

[4] = tested on: PAXF1657 organoid, pancreatic cancer; test: 3D clonogenic assay in patient derived organoids; assay type: cell-based, human; settings: 8 to 13 days
Description: as §1, §2, §3, §4

[5] = tested on: CXF1256 organoid, colon cancer; test: 3D clonogenic assay in patient derived organoids; assay type: cell-based, human; settings: 8 to 13 days
Description: as §1, §2, §3, §4

[6] = tested on: PAXF2131 organoid, Pancreatic cancer; test: 3D clonogenic assay in patient derived organoids; assay type: cell-based, human; settings: 8 to 13 days
Description: as §1, §2, §3, §4

[7] = tested on: MAXFTN2990 organoid, breast cancer (triple negative); test: 3D clonogenic assay in patient derived organoids; assay type: cell-based, human; settings: 8 to 13 days
Description: as §1, §2, §3, §4

[8] = tested on: LXFA644 organoid, NSCLC (adenocarcinoma subtype); test: 3D clonogenic assay in patient derived organoids; assay type: cell-based, human; settings: 8 to 13 days
Description: as §1, §2, §3, §4

[9] = tested on: MAXFTN449 organoid, breast cancer (triple negative); test: 3D clonogenic assay in patient derived organoids; assay type: cell-based, human; settings: 8 to 13 days
Description: as §1, §2, §3, §4

[10] = tested on: LXFE2478 organoid, NSCLC (squamous subtype); test: 3D clonogenic assay in patient derived organoids; assay type: cell-based, human; settings: 8 to 13 days
Description: as §1, §2, §3, §4

[11] = tested on: CXF2061 organoid, colon cancer; test: 3D clonogenic assay in patient derived organoids; assay type: cell-based, human; settings: 8 to 13 days
Description: as §1, §2, §3, §4

[12] = Plasma concentration of Compound 1 at the 400 mg dose; assay type: in vivo; settings: 400 mg dose in human

C[C@@H]1CC[C@@H](Nc2nc(NC(C)(C)C)ncc2C(N)=O)C[C@H]1O [Compound 1, 2-(tert-butylamino)-4-((1R,3R,4R)-3-hydroxy-4-methylcyclohexylamino)-pyrimidine-5-carboxamide]
% Reduction in Colony Formation with Compound 1 compared with DMSO, Mean ([1]; Compound 1, 5 μM): 73% | % Reduction in Colony Formation with Compound 1 compared with DMSO, Mean ([1]; Compound 1, 20 μM): 79% | % Reduction in Colony Formation with Compound 1 compared with DMSO, Mean ([2]; Compound 1, 5 μM): 56% | % Reduction in Colony Formation with Compound 1 compared with DMSO, Mean ([2]; Compound 1, 20 μM): 49% | % Reduction in Colony Formation with Compound 1 compared with DMSO, Mean ([3]; Compound 1, 5 μM): 27% | % Reduction in Colony Formation with Compound 1 compared with DMSO, Mean ([3]; Compound 1, 20 μM): 32% | % Reduction in Colony Formation with Compound 1 compared with DMSO, Mean ([4]; Compound 1, 5 μM): 31% | % Reduction in Colony Formation with Compound 1 compared with DMSO, Mean ([4]; Compound 1, 20 μM): 27% | % Reduction in Colony Formation with Compound 1 compared with DMSO, Mean ([5]; Compound 1, 5 μM): 90% | % Reduction in Colony Formation with Compound 1 compared with DMSO, Mean ([5]; Compound 1, 20 μM): 92% | % Reduction in Colony Formation with Compound 1 compared with DMSO, Mean ([6]; Compound 1, 5 μM): 62% | % Reduction in Colony Formation with Compound 1 compared with DMSO, Mean ([6]; Compound 1, 20 μM): 68% | % Reduction in Colony Formation with Compound 1 compared with DMSO, Mean ([7]; Compound 1, 5 μM): −8% | % Reduction in Colony Formation with Compound 1 compared with DMSO, Mean ([7]; Compound 1, 20 μM): 34% | % Reduction in Colony Formation with Compound 1 compared with DMSO, Mean ([8]; Compound 1, 5 μM): 12% | % Reduction in Colony Formation with Compound 1 compared with DMSO, Mean ([8]; Compound 1, 20 μM): 24% | % Reduction in Colony Formation with Compound 1 compared with DMSO, Mean ([9]; Compound 1, 5 μM): 56% | % Reduction in Colony Formation with Compound 1 compared with DMSO, Mean ([9]; Compound 1, 20 μM): 54% | % Reduction in Colony Formation with Compound 1 compared with DMSO, Mean ([10]; Compound 1, 5 μM): 39% | % Reduction in Colony Formation with Compound 1 compared with DMSO, Mean ([10]; Compound 1, 20 μM): 28% | % Reduction in Colony Formation with Compound 1 compared with DMSO, Mean ([11]; Compound 1, 5 μM): 8% | % Reduction in Colony Formation with Compound 1 compared with DMSO, Mean ([11]; Compound 1, 20 μM): 9% | plasma concentration at Cavg [12]: 4 µM | Cmax ([12]; plasma): 14 µM
